Article PMC11284800 (Journal of Medicinal Chemistry, 2024)
Values joined by “and” are separate entries in the source; they are usually repeats but may differ in a detail not shown here. Equal values may be shown once. Read-outs that look alike come from different tables or passages of the source.

Legend:
hCB1R [1] = target: T1, hCB1R (Homo sapiens, UniProt P21554); assay: HTRF cAMP assay, agonist / inverse agonist mode; assay type: cell-based; design: expressed in transfected cells; host or cells: CHO; conditions: for Functional activity at CB1R (in words): CB1R cAMP HTRF assay
Target sequence in this assay (P21554 whole entry): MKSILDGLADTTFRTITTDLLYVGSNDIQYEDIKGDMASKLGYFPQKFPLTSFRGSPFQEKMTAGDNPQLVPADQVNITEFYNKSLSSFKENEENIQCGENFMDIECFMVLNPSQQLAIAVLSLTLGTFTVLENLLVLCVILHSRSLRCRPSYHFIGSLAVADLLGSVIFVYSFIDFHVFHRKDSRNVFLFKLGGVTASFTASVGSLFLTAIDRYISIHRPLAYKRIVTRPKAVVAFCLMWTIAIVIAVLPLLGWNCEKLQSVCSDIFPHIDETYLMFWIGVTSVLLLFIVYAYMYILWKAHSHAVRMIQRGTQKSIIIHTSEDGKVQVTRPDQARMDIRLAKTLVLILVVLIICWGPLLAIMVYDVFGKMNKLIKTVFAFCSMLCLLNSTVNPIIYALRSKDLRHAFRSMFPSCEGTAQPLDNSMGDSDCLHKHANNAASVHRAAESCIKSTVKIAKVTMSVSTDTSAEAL

human CB2R = target: T2, human CB2R (Homo sapiens, UniProt P34972); assay: [3H]CP55,940 displacement assay on CHO membranes, CB2R; assay type: binding; conditions: for Ki: [3H]CP55,940 displacement; for hCB2R % displacement at 10 µM: [3H]CP55,940 displacement at 10 µM compound, ± SEM
T2 construct: host or cells: CHO-K1 (CHOK1hCB2_bgal)
T2 sequence (P34972 whole entry): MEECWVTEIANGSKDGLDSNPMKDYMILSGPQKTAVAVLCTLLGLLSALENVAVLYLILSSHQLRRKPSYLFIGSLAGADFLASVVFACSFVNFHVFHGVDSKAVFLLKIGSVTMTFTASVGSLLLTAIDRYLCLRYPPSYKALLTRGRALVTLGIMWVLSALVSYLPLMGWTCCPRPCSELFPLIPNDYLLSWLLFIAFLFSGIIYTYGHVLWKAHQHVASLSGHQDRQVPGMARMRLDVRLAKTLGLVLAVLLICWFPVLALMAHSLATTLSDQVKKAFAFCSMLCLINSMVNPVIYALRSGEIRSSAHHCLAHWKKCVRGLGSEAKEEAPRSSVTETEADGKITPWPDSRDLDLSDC

hCB1R [2] = target: T1, hCB1R; assay: [3H]CP55,940 displacement assay on CHO membranes, CB1R; assay type: binding; design: host or cells: CHO-K1 (CHOK1hCB1_bgal); conditions: for Ki: [3H]CP55,940 displacement
Target sequence in this assay (P21554 whole entry): as the sequence (P21554 whole entry) above

hCB1R [3] = target: T1, hCB1R; assay: HTRF cAMP assay, antagonist mode (forskolin with CP55,940)
Target sequence in this assay (P21554 whole entry): as above
Procedure: The homogeneous time-resolved fluorescence (HTRF) cAMP assay was conducted following the manufacturer’s protocol for the cAMP-Gs Dynamic kit. […] After 15 min, reactions were stopped by the 1× cAMP-d2 conjugate in lysis buffer (5 μL/well), followed by 1× anti-cAMP cryptate conjugate in lysis buffer (5 μL/well). Following a 1 h incubation at room temperature, the plates were read in a Revvity Envision reader for time-resolved fluorescence resonance energy transfer detection at 620 and 665 nm. The HTRF ratio versus compound concentrations was plotted using Prism 8.1 (GraphPad). HTRF ratio = (signal 665 nm/signal 620 nm) × 10^4.

CB1R [4] = assay: Literature affinity of drug-like ligands, CB1R (Figure 2); assay type: binding; conditions: from literature Ki values
CB2R = conditions: cited from earlier work
CB1R [5] = conditions: cited from earlier work
CB1R [6] = test system: CB1R; design: method as in PMID 8070571, PMID 27240274, PMID 24175572; conditions: cited from earlier work
hCB1R [7] = target: T1, hCB1R; assay: biochemical
Target sequence in this assay (P21554 91-472): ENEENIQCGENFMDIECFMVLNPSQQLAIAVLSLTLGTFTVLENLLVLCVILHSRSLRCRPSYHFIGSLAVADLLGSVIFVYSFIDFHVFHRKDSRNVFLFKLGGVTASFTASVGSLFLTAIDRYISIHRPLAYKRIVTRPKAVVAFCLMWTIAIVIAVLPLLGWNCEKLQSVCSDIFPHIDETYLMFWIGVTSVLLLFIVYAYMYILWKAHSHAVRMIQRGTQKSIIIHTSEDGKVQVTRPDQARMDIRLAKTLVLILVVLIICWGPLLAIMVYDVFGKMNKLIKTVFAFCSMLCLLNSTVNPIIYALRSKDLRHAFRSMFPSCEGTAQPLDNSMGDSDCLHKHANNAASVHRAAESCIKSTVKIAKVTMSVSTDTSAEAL

[8] = Photophysical characterization in PBS; assay type: physicochemical; conditions: PBS pH 7.4
[9] = hCB2R Ki, CHO membranes stably expressing human CB2R, means of three experiments
[10] = hCB1R Ki, CHO membranes stably expressing human CB1R, means of three experiments

With `CCOC(=O)C(CC)(CC)NC(=O)c1nn(Cc2cccc(F)c2)c2ccccc12` [Compound 19, Ethyl 2-Ethyl-2-(1-(3-fluorobenzyl)-1H-indazole-3-carboxamido)butanoate] the EC50 (hCB1R [1]) was 3.24 nM, the Emax (hCB1R [1]) was 93% and the “Functional activity at CB1R (in words)” value (hCB1R [1]) was “agonist”. It also gave a Ki (human CB2R; [9]) of 1 nM, a Ki (human CB2R; hCB2R pKi ± SEM, CHO membranes) of 0.631 nM and a Ki (hCB1R [2]; hCB1R pKi ± SEM, CHO membranes) of 19.1 nM.
For `CCC(CC)(NC(=O)c1nn(-c2ccc(Cl)cc2Cl)c(-c2ccc(Cl)cc2)c1C)C(=O)NCCOCCOCCNC(=O)OC(C)(C)C` [Compound 23b, tert-Butyl (1-(5-(4-Chlorophenyl)-1-(2,4-dichlorophenyl)-4-methyl-1H-pyrazol-3-yl)-3,3-diethyl-1,4-dioxo-8,11-dioxa-2,5-diazatridecan-13-yl)carbamate], the Emax (hCB1R [1]) was -44%, the IC50 (hCB1R [1]) was 64.6 nM and the “Functional activity at CB1R (in words)” value (hCB1R [1]) was “inverse agonist”. For the same molecule, the “hCB2R % displacement at 10 µM” value (human CB2R) was 44 ± 5%, the Ki (human CB2R; [9]) was greater than 10000 nM and the IC50 (hCB1R [3]) was 1580 nM. The Emax (hCB1R [3]; read-out: Variation of Emax) was -96% and the Ki (hCB1R [2]; [10]) was 139 nM.
In the case of `CC(C)[C@H](NC(=O)c1nn(Cc2cccc(F)c2)c2ccccc12)C(N)=O` [Compound 10, AB-FUBINACA 3-F benzyl], the “Ki(CB2R)/Ki(CB1R) selectivity” value (CB1R [4]) is given as 4 fold, the Ki (CB2R) is given as 52.5 nM and the Ki (CB1R [5]) is given as 12.6 nM. For the same molecule, the “Functional profile at CB1R (in words)” value (CB1R [6]) was “agonist”.
In the case of `CCOC(=O)C(CC)(CC)NC(=O)c1nn(-c2ccc(Cl)cc2Cl)c2c1CCCc1cc(Cl)ccc1-2` [Compound 16, Ethyl 2-(8-Chloro-1-(2,4-dichlorophenyl)-1,4,5,6-tetrahydrobenzo[6,7]cyclohepta[1,2-c]pyrazole-3-carboxamido)-2-ethylbutanoate], the “Functional activity at CB1R (in words)” value (hCB1R [1]) is reported as “no activity”, the Ki (human CB2R; hCB2R pKi ± SEM, CHO membranes) is reported as 3.98 nM and the Ki (hCB1R [2]; hCB1R pKi ± SEM, CHO membranes) is reported as 17.8 nM.
`CCCCCCC(C)(C)c1cc(O)c2c(c1)OC(C)(C)[C@@H]1CC=C(CO)C[C@@H]21` [HU210] showed a Kd (hCB1R [7]) of 3.04 nM, a koff (hCB1R [7]) of 0.00183 s⁻¹ and a kon (hCB1R [7]) of 623000 M⁻¹ s⁻¹. The Ki (hCB1R [7]; Ki) was 2.08 nM and 1.26 nM, the Ki (hCB1R [7]; pKi) was 2.04 nM and the residence time (hCB1R [7]; read-out: RT (residence time)) was 9.1 min.
For `Cc1c(C(=O)NN2CCOCC2)nn(-c2ccc(Cl)cc2Cl)c1-c1ccc(I)cc1` [AM281, reference compound], the “Variation of Emax” value (hCB1R [3]; antagonist mode, normalized to reference antagonist AM281) was -100% and the “Antagonist activity (cAMP assay) pEC50 or pIC50 ± SEM” value (hCB1R [3]; antagonist mode, n.a. is no activity) was 7.0 ± 0.04.
For `COCCOc1ncc(C(=O)NC[C@](C)(O)C2CC2)nc1-c1ccc(Cl)cc1` [Compound 9], the Ki (CB2R) is listed as greater than 475 nM, the Ki (CB1R [5]) is listed as 47.5 nM and the “Functional profile at CB1R (in words)” value (CB1R [6]) is listed as “inverse agonist”.
With `CCC(CC)(NC(=O)c1nn(-c2ccc(Cl)cc2Cl)c(-c2ccc(Cl)cc2)c1C)C(=O)NCCOCCOCCNc1ccc([N+](=O)[O-])c2nonc12` [Compound 30, 5-(4-Chlorophenyl)-1-(2,4-dichlorophenyl)-4-methyl-N-(3-((2-(2-(2-((7-nitrobenzo[c][1,2,5]oxadiazol-4-yl)amino)ethoxy)ethoxy)ethyl)carbamoyl)pentan-3-yl)-1H-pyrazole-3-carboxamide] the Emax (hCB1R [1]) was -41%, the IC50 (hCB1R [1]) was 60.3 nM and the “Functional activity at CB1R (in words)” value (hCB1R [1]) was “Inverse agonist”. For the same molecule, the “hCB2R % displacement at 10 µM” value (human CB2R) was 49 ± 3%, the Ki (human CB2R; [9]) was greater than 10000 nM and the “Abs (absorbance maximum)” value [8] was 475 nm. For the same molecule, the “Em (emission maximum)” value [8] was 570 nm, the “QY (quantum yield)” value [8] was 0.80% and the Ki (hCB1R [2]; [10]) was 428 nM. The “Ki(CB2R)/Ki(CB1R)” value (hCB1R [2]; radioligand binding Ki ratio) was greater than 23.
In the case of `O=C(NN1CCCCC1)c1nn(-c2ccc(Cl)cc2Cl)c2c1CCCc1cc(Cl)ccc1-2` [Compound 7, NESS-0327], the Ki (CB2R) is given as 55.7 nM, the Ki (CB1R [5]) is given as 4.2 nM and the “Functional profile at CB1R (in words)” value (CB1R [6]) is given as “neutral antagonist”.
In the case of `CCC(CC)(NC(=O)c1cnc(OCCOC)c(-c2ccc(Cl)cc2)n1)C(=O)NCCOCCOCCNC(=O)c1ccc2c(c1)C(=O)OC21c2ccc(N(C)C)cc2Oc2cc(N(C)C)ccc21` [Compound 35], the “hCB2R % displacement at 10 µM” value (human CB2R) is reported as 2 ± 0%, the Ki (human CB2R; CHO membranes stably expressing human CB2R, means of three experiments, read-out: hCB2R Ki) is reported as greater than 10000 nM and the “Binding to CB2R (in words)” value (human CB2R; radioligand binding assay) is reported as “did not bind”. The “Abs (absorbance maximum)” value [8] was 560 nm, the “Em (emission maximum)” value [8] was 590 nm and the “QY (quantum yield)” value [8] was 56.20%. For the same molecule, the “hCB1R % displacement at 10 µM” value (hCB1R [2]; [3H]CP55,940 displacement at 10 µM compound, ± SEM) was -6 ± 5%, the Ki (hCB1R [2]; CHO membranes stably expressing human CB1R, means of three experiments, read-out: hCB1R Ki) was greater than 10000 nM and the “Binding to CB1R (in words)” value (hCB1R [2]; radioligand binding assay) was “did not bind”.
